Measured values from US9050341B2, “Methods of treating drug resistant and other tumors by administering 6,7-dialkoxy quinazoline derivatives” (NATCO PHARMA LIMITED, priority 2009, dated 2015).

Legend:
Assay in all cases: KinomeScan kinase profiling
Format in all cases: binding
[1] = molecular target: T1, PYK2 (Homo sapiens, UniProt Q14289)
T1 construct: host or cells: E. coli host derived from BL21, T7 phage lysate
Procedure, shortened: (§1)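 Kinases were expressed as T7 phage fusions in a BL21-derived E. coli host and the cleared lysates were used. Ligand beads were blocked with biotin and buffer (1% BSA, 0.05% Tween 20, 1 mM DTT). Compounds came from 40× DMSO stocks, and phage in the eluates was titred by qPCR.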

[2] = molecular target: T2, MRCKB (Homo sapiens, UniProt Q9Y5S2)
T2 construct: host or cells: T7 phage in E. coli host derived from BL21
Procedure, shortened: as §1

[3] = molecular target: T3, FLT3 (N8411) (Homo sapiens, UniProt P36888, N841I)
T3 construct: host or cells: E. coli host derived from BL21, infected with T7 phage
Procedure, shortened: as §1

[4] = molecular target: T4, PRKCE (Homo sapiens, UniProt Q02156)
T4 construct: purchased Ambit Biosciences Corp (KinomeScan); host or cells: E. coli host derived from BL21, infected with T7 phage
T4 sequence (Q02156 whole entry): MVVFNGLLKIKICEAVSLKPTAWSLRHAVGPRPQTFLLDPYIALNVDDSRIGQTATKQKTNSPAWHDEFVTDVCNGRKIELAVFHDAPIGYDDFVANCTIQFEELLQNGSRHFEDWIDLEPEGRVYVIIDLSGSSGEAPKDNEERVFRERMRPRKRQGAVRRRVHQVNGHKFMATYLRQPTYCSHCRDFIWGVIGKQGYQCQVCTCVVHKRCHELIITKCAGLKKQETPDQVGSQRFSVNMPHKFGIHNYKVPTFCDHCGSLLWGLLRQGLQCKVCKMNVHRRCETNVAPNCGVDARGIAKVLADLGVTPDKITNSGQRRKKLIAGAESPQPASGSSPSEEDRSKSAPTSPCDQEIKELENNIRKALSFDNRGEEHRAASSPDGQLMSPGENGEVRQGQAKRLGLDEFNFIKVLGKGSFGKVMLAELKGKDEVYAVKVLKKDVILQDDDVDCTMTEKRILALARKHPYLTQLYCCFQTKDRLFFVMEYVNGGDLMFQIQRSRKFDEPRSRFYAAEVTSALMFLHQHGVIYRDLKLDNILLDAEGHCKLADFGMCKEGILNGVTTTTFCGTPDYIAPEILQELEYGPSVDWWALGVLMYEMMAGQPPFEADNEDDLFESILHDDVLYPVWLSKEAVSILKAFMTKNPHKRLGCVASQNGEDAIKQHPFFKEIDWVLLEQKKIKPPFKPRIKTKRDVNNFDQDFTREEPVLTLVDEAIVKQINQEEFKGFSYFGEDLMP
Procedure, shortened: as §1

[5] = molecular target: T5, SRMS (Homo sapiens, UniProt Q9H3Y6)
T5 construct: host or cells: E. coli host derived from the BL21 strain, T7 phage lysate
T5 sequence (Q9H3Y6 whole entry): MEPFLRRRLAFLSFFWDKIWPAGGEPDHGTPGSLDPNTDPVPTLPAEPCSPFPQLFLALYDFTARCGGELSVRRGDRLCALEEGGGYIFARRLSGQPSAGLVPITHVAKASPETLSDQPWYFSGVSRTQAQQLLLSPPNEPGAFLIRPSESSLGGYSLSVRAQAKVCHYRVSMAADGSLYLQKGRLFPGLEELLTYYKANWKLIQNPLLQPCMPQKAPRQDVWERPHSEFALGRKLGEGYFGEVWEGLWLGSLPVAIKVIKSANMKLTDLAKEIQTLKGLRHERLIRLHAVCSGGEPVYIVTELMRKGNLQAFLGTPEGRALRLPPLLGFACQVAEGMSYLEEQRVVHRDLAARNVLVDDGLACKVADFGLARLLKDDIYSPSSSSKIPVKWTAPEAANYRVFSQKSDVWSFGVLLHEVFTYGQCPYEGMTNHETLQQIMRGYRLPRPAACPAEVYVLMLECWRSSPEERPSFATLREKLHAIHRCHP
Procedure, shortened: as §1

[6] = molecular target: T6, CDK3 (Homo sapiens, UniProt Q00526)
T6 construct: host or cells: T7 phage in E. coli (BL21-derived)
Procedure, shortened: as §1

[7] = molecular target: T7, RET (V804M) (Homo sapiens, UniProt P07949, V804M)
T7 construct: host or cells: E. coli host derived from BL21, T7 phage lysate
Procedure, shortened: as §1

[8] = molecular target: T8, ADCK4 (Homo sapiens, UniProt Q96D53)
T8 construct: host or cells: E. coli host derived from BL21 (T7 phage lysate)
Procedure, shortened: as §1

[9] = molecular target: T9, FLT3 (D835Y) (Homo sapiens, UniProt P36888, D835Y)
T9 construct: host or cells: E. coli host derived from BL21, infected with T7 phage
Procedure, shortened: as §1

[10] = molecular target: T10, CAMK1D (Homo sapiens, UniProt Q8IU85)
T10 construct: purchased Ambit Biosciences Corp (KinomeScan); host or cells: E. coli host derived from the BL21 strain, T7 phage
Procedure, shortened: as §1

[11] = molecular target: T11, TESK1 (Homo sapiens, UniProt Q15569)
T11 construct: host or cells: E. coli host derived from the BL21 strain, T7 phage lysate
Procedure, shortened: as §1

[12] = molecular target: T12, GSK3A (Homo sapiens, UniProt P49840)
T12 construct: host or cells: E. coli host derived from BL21, infected with T7 phage
T12 sequence (P49840 whole entry): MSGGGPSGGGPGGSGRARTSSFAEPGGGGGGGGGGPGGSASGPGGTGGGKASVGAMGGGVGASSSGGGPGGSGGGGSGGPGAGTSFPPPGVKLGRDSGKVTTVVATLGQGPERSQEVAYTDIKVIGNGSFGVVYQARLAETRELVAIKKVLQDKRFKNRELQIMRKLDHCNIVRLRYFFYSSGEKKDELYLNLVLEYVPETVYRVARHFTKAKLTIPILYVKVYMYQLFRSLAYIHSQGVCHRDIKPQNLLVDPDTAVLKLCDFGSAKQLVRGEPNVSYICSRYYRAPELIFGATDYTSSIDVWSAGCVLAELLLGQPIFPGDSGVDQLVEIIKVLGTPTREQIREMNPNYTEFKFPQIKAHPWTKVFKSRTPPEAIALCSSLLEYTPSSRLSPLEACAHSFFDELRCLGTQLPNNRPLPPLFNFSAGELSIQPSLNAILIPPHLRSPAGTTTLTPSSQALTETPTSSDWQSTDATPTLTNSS
Procedure, shortened: as §1

[13] = molecular target: T13, DDR2 (Homo sapiens, UniProt Q16832)
T13 construct: purchased Ambit Biosciences Corp (KinomeScan); host or cells: T7 phage in E. coli host derived from BL21
T13 sequence (Q16832 22-855): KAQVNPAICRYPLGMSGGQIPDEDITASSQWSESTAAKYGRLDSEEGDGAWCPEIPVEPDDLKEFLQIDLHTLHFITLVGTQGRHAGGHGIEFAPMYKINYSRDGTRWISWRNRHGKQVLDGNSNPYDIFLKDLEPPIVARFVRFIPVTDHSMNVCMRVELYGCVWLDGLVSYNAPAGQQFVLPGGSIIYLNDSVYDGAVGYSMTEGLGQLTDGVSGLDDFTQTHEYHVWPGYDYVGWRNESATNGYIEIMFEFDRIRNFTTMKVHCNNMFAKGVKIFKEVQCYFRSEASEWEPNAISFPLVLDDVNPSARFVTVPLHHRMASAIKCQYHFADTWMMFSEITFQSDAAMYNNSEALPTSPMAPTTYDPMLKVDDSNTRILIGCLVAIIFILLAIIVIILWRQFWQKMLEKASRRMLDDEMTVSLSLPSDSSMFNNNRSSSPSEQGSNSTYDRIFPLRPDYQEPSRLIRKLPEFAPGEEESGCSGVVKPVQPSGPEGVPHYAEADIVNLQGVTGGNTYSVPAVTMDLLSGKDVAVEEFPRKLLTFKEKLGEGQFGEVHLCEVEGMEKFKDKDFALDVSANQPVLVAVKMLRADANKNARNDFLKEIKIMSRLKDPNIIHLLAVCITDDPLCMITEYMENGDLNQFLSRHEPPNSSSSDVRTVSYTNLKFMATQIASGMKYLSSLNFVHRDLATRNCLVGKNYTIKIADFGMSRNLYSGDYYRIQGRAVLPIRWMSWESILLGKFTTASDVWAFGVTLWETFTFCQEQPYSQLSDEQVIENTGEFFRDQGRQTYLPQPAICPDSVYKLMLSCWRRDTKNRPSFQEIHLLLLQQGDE
Procedure, shortened: as §1

[14] = molecular target: T14, PCTK2 (Homo sapiens, UniProt Q00537)
T14 construct: host or cells: E. coli host derived from the BL21 strain, infected with T7 phage
Procedure, shortened: as §1

[15] = molecular target: T15, SNARK (Homo sapiens, UniProt Q9H093)
T15 construct: host or cells: E. coli host derived from the BL21 strain, T7 phage lysate
Procedure, shortened: as §1

[16] = molecular target: T16, MAP4K3 (Homo sapiens, UniProt Q8IVH8)
T16 construct: host or cells: E. coli derived from BL21, infected with T7 phage
Procedure, shortened: as §1

[17] = molecular target: T17, MEK1 (Homo sapiens, UniProt Q02750)
T17 construct: host or cells: E. coli derived from BL21, infected with T7 phage
T17 sequence (Q02750 whole entry): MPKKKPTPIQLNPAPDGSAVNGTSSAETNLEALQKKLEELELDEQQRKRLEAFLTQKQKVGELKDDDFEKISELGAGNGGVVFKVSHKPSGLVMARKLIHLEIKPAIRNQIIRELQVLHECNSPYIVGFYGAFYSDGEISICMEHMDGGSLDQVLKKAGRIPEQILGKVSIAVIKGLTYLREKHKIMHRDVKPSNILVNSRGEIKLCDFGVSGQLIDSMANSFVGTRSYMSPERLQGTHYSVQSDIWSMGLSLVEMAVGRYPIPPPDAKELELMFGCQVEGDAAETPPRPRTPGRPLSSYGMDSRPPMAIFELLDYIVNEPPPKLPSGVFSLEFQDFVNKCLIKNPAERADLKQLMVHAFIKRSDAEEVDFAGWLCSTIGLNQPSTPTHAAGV
Procedure, shortened: as §1

[18] = molecular target: T18, WEE2 (Homo sapiens, UniProt P0C1S8)
T18 construct: purchased Ambit Biosciences Corp (KinomeScan); host or cells: E. coli host derived from the BL21 strain (T7 phage lysate)
Procedure, shortened: as §1

[19] = molecular target: T19, FGFR3 (G697C) (Homo sapiens, UniProt P22607, G697C)
T19 construct: host or cells: E. coli host derived from BL21, infected with T7 phage
Procedure, shortened: as §1

[20] = molecular target: T20, EGFR (L747-S752del, P753S) (Homo sapiens, UniProt P00533, DEL747-752/P753S)
T20 construct: purchased Ambit Biosciences Corp (KinomeScan); host or cells: T7 phage in E. coli host derived from BL21
Procedure, shortened: as §1

[21] = molecular target: T21, RIPK4 (Homo sapiens, UniProt P57078)
T21 construct: host or cells: E. coli host derived from BL21, T7 phage lysate
Procedure, shortened: as §1

[22] = molecular target: T22, CIT (Homo sapiens, UniProt O14578)
T22 construct: host or cells: T7 phage in E. coli (BL21-derived)
T22 sequence (O14578 whole entry): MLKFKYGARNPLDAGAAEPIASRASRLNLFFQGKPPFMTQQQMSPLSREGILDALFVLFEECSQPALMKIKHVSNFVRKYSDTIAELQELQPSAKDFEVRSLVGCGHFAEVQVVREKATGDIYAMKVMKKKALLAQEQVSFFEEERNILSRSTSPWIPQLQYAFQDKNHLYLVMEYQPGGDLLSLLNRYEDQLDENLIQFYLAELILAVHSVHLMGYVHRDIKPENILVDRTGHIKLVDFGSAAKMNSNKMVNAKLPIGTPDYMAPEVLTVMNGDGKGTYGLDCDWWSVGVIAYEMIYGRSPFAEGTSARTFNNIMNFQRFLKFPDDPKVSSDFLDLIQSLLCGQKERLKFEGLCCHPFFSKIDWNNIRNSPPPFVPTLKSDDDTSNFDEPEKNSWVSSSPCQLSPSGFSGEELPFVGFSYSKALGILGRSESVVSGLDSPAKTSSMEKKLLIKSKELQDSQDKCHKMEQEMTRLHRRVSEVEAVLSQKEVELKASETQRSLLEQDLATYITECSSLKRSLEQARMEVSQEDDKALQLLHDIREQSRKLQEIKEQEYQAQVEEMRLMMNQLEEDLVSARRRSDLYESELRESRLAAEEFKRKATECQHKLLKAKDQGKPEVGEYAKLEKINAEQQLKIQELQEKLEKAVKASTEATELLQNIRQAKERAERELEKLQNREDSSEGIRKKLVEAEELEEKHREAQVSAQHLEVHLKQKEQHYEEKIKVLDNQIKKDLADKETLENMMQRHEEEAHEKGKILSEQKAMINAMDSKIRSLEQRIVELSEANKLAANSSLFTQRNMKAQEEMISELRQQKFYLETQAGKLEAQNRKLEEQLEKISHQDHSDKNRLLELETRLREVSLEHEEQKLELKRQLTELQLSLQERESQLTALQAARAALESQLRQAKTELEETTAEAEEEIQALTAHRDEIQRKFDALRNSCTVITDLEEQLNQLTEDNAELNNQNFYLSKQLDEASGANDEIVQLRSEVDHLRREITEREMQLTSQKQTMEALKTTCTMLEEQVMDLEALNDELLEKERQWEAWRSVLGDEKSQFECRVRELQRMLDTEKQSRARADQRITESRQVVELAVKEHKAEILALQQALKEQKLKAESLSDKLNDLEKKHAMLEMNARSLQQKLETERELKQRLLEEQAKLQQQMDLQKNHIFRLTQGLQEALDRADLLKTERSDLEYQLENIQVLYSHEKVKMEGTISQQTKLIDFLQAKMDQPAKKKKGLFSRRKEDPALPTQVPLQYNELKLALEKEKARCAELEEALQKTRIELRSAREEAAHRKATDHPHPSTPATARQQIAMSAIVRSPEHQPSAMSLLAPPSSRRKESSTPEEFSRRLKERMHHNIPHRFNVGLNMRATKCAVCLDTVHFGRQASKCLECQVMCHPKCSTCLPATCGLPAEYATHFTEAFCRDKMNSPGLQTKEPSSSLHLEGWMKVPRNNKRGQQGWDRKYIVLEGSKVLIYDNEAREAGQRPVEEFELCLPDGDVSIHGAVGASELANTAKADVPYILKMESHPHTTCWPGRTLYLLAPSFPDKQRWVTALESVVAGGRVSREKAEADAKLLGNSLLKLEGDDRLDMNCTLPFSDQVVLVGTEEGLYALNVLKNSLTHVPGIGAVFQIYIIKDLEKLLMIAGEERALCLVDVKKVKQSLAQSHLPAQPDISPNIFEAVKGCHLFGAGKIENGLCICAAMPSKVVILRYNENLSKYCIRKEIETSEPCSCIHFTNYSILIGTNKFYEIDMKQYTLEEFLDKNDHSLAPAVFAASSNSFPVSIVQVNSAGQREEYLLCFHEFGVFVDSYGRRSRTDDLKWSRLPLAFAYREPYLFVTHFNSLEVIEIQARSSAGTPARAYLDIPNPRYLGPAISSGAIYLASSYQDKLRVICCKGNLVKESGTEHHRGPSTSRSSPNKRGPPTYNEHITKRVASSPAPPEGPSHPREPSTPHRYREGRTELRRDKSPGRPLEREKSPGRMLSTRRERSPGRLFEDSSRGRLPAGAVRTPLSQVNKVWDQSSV
Procedure, shortened: as §1

C#Cc1cccc(Nc2ncnc3cc(OC)c(OCCCN4CCOCC4)cc23)c1 [NRC-2694, N-(3-ethylnylphenyl)-7-methoxy-6-[3-(4-morpholinyl)propoxy]-4-quinazolinamine]
% Ctrl @ 10000 nM [1]: 71 % Ctrl | % Ctrl @ 10000 nM [2]: 71 % Ctrl | % Ctrl @ 10000 nM [3]: 16 % Ctrl | % Ctrl @ 10000 nM [4]: 65 % Ctrl | % Ctrl @ 10000 nM [5]: 100 % Ctrl | % Ctrl @ 10000 nM [6]: 91 % Ctrl | % Ctrl @ 10000 nM [7]: 100 % Ctrl | % Ctrl @ 10000 nM [8]: 14 % Ctrl | % Ctrl @ 10000 nM [9]: 9.4 % Ctrl | % Ctrl @ 10000 nM [10]: 83 % Ctrl | % Ctrl @ 10000 nM [11]: 83 % Ctrl | % Ctrl @ 10000 nM [12]: 75 % Ctrl | % Ctrl @ 10000 nM [13]: 76 % Ctrl | % Ctrl @ 10000 nM [14]: 72 % Ctrl | % Ctrl @ 10000 nM [15]: 19 % Ctrl | % Ctrl @ 10000 nM [16]: 52 % Ctrl | % Ctrl @ 10000 nM [17]: 50 % Ctrl | % Ctrl @ 10000 nM [18]: 53 % Ctrl | % Ctrl @ 10000 nM [19]: 82 % Ctrl | % Ctrl @ 10000 nM [20]: 0.1 % Ctrl | % Ctrl @ 10000 nM [21]: 96 % Ctrl | % Ctrl @ 10000 nM [22]: 5.0 % Ctrl
